pEC50, pIC50: −log10 of the molar value.
Assays:
[1] = biological target: T1, Aryl Hydrocarbon Receptor (AhR) (Homo sapiens, UniProt P35869); assay: Aryl Hydrocarbon Receptor (AhR) Human LS180 CYP1A1 FRET; type: cell-based; details: LS180 cells
T1 construct: LS180 CYP1A1 FRET; endogenous in cells; host or cells: LS180
T1 sequence (P35869 11-848): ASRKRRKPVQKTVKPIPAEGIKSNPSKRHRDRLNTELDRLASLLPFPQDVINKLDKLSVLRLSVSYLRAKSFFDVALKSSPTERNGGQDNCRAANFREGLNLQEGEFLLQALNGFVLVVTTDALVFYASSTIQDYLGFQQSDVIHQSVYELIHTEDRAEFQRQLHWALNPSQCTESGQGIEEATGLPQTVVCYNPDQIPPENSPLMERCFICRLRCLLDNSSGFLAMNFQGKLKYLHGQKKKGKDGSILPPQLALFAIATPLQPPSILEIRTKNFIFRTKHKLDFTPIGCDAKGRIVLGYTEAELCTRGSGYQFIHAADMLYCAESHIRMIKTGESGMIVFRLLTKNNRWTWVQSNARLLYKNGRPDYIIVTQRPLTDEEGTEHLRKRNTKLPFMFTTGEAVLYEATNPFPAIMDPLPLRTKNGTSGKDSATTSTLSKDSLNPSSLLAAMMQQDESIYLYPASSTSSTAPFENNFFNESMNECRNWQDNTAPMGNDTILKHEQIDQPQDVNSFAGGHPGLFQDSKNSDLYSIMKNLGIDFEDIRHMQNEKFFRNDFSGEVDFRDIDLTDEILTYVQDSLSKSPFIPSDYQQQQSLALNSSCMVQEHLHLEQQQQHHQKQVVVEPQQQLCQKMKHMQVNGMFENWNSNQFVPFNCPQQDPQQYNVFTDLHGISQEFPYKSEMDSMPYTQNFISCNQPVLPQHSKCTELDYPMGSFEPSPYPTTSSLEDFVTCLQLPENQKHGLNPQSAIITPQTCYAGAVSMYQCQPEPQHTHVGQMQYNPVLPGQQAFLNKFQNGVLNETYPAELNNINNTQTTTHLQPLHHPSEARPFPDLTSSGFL
Source text: An important challenge for drug development is the generation of novel heterocyclic building blocks with suitable properties for use in screening and medicinal chemistry programs.[34] The cantharimides accessed using this methodology have appropriate physicochemical properties for lead-like compounds, including lipophilicity,[35] molecular weight and polar surface area[36] (Figure 3). Another attractive feature of these scaffolds is the high proportion of sp^3-hybridized carbon atoms, which is typically associated with improved protein binding selectivity and frequency, better solubility and a reduced chance of off-target effects.[37] Indeed, cantharimides 7, 10, endo-3 f and exo-3 f were screened against the hERG receptor (IC50>50 μM) and the aryl hydrocarbon receptor (EC50>100 μM), which are responsible for common off target effects, and no affinity was observed. […]
endo-3f Aryl Hydrocarbon Receptor (AhR) Human LS180 CYP1A1 FRET - EC50 >100
exo-3f Aryl Hydrocarbon Receptor (AhR) Human LS180 CYP1A1 FRET - EC50 >100
7 Aryl Hydrocarbon Receptor (AhR) Human LS180 CYP1A1 FRET - EC50 >100
10 Aryl Hydrocarbon Receptor (AhR) Human LS180 CYP1A1 FRET - EC50 >100
(§1) (1 picture or pasted object on this page, not shown here)

[2] = biological target: KCNH2 (human Ether-à-go-go-Related Gene) (Homo sapiens, UniProt Q12809); assay: KCNH2 (hERG) Human Antagonist Barracuda Electrophysiology Population Patch Clamp; type: cell-based; details: read-out: IC50 hERG receptor (KCNH2 antagonist)
Chain of KCNH2 (human Ether-à-go-go-Related Gene) (Q12809 whole entry): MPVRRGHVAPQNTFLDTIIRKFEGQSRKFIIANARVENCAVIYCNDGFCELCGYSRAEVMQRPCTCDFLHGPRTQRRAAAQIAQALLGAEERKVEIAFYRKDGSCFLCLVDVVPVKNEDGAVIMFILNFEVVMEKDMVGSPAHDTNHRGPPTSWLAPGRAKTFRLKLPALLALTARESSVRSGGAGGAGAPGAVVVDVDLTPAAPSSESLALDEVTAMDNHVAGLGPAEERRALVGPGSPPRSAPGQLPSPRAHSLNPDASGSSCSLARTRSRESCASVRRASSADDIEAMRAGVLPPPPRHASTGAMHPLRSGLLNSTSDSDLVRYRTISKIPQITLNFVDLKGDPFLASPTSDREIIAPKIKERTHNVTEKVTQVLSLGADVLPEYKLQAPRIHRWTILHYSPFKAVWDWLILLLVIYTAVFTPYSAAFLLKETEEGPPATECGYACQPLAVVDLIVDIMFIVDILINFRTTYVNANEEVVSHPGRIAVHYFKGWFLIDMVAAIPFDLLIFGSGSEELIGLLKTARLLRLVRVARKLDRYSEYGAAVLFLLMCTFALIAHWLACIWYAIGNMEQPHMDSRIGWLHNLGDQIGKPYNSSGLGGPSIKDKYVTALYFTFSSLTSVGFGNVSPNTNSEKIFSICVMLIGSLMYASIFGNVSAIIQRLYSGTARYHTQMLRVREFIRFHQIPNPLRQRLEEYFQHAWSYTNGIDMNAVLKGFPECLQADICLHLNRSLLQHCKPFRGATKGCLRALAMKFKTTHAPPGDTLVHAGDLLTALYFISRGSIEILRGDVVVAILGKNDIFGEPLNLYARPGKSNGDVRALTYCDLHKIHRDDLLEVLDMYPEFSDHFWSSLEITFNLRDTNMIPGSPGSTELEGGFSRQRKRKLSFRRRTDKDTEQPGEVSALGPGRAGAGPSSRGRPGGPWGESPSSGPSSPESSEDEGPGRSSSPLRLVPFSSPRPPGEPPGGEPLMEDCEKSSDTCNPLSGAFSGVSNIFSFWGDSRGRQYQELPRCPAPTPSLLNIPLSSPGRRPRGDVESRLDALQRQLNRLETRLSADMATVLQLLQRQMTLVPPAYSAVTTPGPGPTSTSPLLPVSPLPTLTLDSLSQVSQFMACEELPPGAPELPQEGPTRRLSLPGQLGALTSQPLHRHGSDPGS
Source text: (§2) An important challenge for drug development is the generation of novel heterocyclic building blocks with suitable properties for use in screening and medicinal chemistry programs.[34] The cantharimides accessed using this methodology have appropriate physicochemical properties for lead-like compounds, including lipophilicity,[35] molecular weight and polar surface area[36] (Figure 3). Another attractive feature of these scaffolds is the high proportion of sp^3-hybridized carbon atoms, which is typically associated with improved protein binding selectivity and frequency, better solubility and a reduced chance of off-target effects.[37] Indeed, cantharimides 7, 10, endo-3 f and exo-3 f were screened against the hERG receptor (IC50>50 μM) and the aryl hydrocarbon receptor (EC50>100 μM), which are responsible for common off target effects, and no affinity was observed.
Compound Assay Parameter Value/µM
endo-3f KCNH2 (human Ether -à-go-go-Related Gene) Human Antagonist IC50 >50 […]
as §1

[3] = in vitro clearance in the presence of human microsomes; type: in vitro ADME; details: IVC testing performed by Cyprotex
Source text: as §2
[38] IVC testing performed by Cyprotex, 15 Beech Lane, Macclesfield, Cheshire, SK10 2DR, UK

Row | Structure (SMILES) | pEC50 [1] | pIC50 [2] | in vitro clearance [3]
1 | CCOC1CC2OC1(c1ccccc1)C1C(=O)N(C)C(=O)C21 (stereo not drawn) [compound 7] | < 4.00 | < 4.30 | 
2 | CCOC1=C[C@H]2O[C@]1(c1ccccc1)[C@@H]1C(=O)N(C)C(=O)[C@@H]12 [exo-3 f] | < 4.00 | < 4.30 | 
3 | CCOC1=CC2OC1(c1ccccc1)C1C(=O)N(C)C(=O)C21 (stereo not drawn) [endo-3 f] | < 4.00 | < 4.30 | 
4 | CN1C(=O)C2C3CC(O)C(c4ccccc4)(O3)C2C1=O (stereo not drawn) [compound 10] | < 4.00 | < 4.30 | < 0.53 mL/min/g
